Data on 22 compounds can be found in patent US20190031676A1, “ANTIBACTERIAL ANNULATED PYRROLIDIN-2-ONE DERIVATIVES” (priority 2015, published 2019).

Converted amounts (≈) assume the structure as drawn.

Common to all, as to assay: Bacterial growth minimal inhibitory concentration (microdilution, cation-adjusted Mueller-Hinton Broth)
What all share (type): cell-based
A general note: Dilution methods test growth across graded concentrations, often in twofold steps.

One experiment deals with E. coli ATCC25922. The note with it: Escherichia coli, ATCC25922; quinolone-sensitive strain. On the procedure: (§1) Minimal Inhibitory Concentrations (MICs; mg/L) were determined in cation-adjusted Mueller-Hinton Broth by a microdilution method following the description given in “Methods for Dilution Antimicrobial Susceptibility Tests for Bacteria that grow Aerobically”, Approved standard, 7th ed., Clinical and Laboratory Standards Institute (CLSI) Document M7-A7, Wayne, Pa., USA (2006).
(§2) All Example compounds were tested against several Gram-positive and Gram-negative bacteria. […] K. pneumoniae A-651 is a multiply-resistant strain (in particular quinolone-resistant), while E. coli ATCC25922 and P. aeruginosa ATCC27853 are quinolone-sensitive strains.

In the next experiment the test system is K. pneumoniae A-651. The note with it: Klebsiella pneumoniae, A651; multiply-resistant strain (in particular quinolone-resistant). On the procedure:
as §1, §2

The test system of the next experiment is P. aeruginosa ATCC27853. The note with it: Pseudomonas aeruginosa, ATCC27853; quinolone-sensitive strain. On the procedure:
as §1, §2

What is called MIC is the lowest concentration that inhibits growth of the organism. For the compound `CC(C)(CO)c1ccc(C#Cc2cc3c(s2)C(=O)N(CCC(C)(C(=O)NO)S(C)(=O)=O)C3)cc1` (racemic) [Reference Example 1, (2RS)—N-hydroxy-4-(2-((4-(1-hydroxy-2-methylpropan-2-yl)phenyl)ethynyl)-6-oxo-4,6-dihydro-5H-thieno[2,3-c]pyrrol-5-yl)-2-methyl-2-(methylsulfonyl)butanamide], the MIC turned out to be 0.25 µg/mL (≈ 0.495 µM) in the experiment with E. coli ATCC25922, 1 µg/mL (≈ 1.98 µM) against K. pneumoniae A-651 and 2 µg/mL (≈ 3.96 µM) in the experiment on P. aeruginosa ATCC27853.
The matching figures for `CC(CCN1Cc2cc(C#CC#CC3(CO)CC3)sc2C1=O)(C(=O)NO)S(C)(=O)=O` (racemic) [Reference Example 2, (2RS)—N-hydroxy-4-(2-((1-(hydroxymethyl)cyclopropyl)buta-1,3-diyn-1-yl)-6-oxo-4,6-dihydro-5H-thieno[2,3-c]pyrrol-5-yl)-2-methyl-2-(methylsulfonyl)butanamide]: 1 µg/mL (≈ 2.22 µM), 2 µg/mL (≈ 4.44 µM) and 2 µg/mL (≈ 4.44 µM).
The matching figures for `C[C@@](CCN1Cc2cc(C#CC#C[C@@H]3C[C@H]3CO)sc2C1=O)(C(=O)NO)S(C)(=O)=O` (single isomer, unassigned) [Example 1]: 0.125 µg/mL (≈ 0.277 µM), 0.25 µg/mL (≈ 0.555 µM) and 0.5 µg/mL (≈ 1.11 µM).
Taken in the same sequence, the figures for `C[C@@](CCN1Cc2cc(C#CC#CC3CN([C@@H]4CCOC4)C3)sc2C1=O)(C(=O)NO)S(C)(=O)=O` (single isomer, unassigned) [Example 37] were 0.5 µg/mL (≈ 0.989 µM), 0.5 µg/mL (≈ 0.989 µM) and 1 µg/mL (≈ 1.98 µM).
Consider `C[C@@](CCN1Cc2cc(C#CC#CC3CN([C@H]4CCOC4)C3)sc2C1=O)(C(=O)NO)S(C)(=O)=O` (single isomer, unassigned) [Example 38], for which the MIC against E. coli ATCC25922 is 0.25 µg/mL (≈ 0.494 µM); with K. pneumoniae A-651, 0.25 µg/mL (≈ 0.494 µM); against P. aeruginosa ATCC27853 it was 1 µg/mL (≈ 1.98 µM).
As to `COc1ccc(-c2cc3c(s2)C(=O)N(CC[C@](C)(C(=O)NO)S(C)(=O)=O)C3)c(F)c1` [Example 2, (2R)-4-(2-(2-fluoro-4-methoxyphenyl)-6-oxo-4,6-dihydro-5H-thieno[2,3-c]pyrrol-5-yl)-N-hydroxy-2-methyl-2-(methylsulfonyl)butanamide], the MIC with E. coli ATCC25922 is at most 0.063 µg/mL; against K. pneumoniae A-651 it was 0.25 µg/mL (≈ 0.548 µM); in the experiment on P. aeruginosa ATCC27853, 2 µg/mL (≈ 4.38 µM).
Turning to `C[C@@](CCN1Cc2cc(C#CC#CC3(N)CC3)sc2C1=O)(C(=O)NO)S(C)(=O)=O` [Example 3, (2R)-4-(2-((1-aminocyclopropyl)buta-1,3-diyn-1-yl)-6-oxo-4,6-dihydro-5H-thieno[2,3-c]pyrrol-5-yl)-N-hydroxy-2-methyl-2-(methylsulfonyl)butanamide], the figures for the MIC in the experiment on E. coli ATCC25922, against K. pneumoniae A-651 and in the experiment with P. aeruginosa ATCC27853 were 0.25 µg/mL (≈ 0.574 µM), 0.5 µg/mL (≈ 1.15 µM) and 1 µg/mL (≈ 2.3 µM), respectively.
Taken in the same sequence, the figures for `CNC1(C#CC#Cc2cc3c(s2)C(=O)N(CC[C@](C)(C(=O)NO)S(C)(=O)=O)C3)CC1` [Example 5, (2R)—N-hydroxy-2-methyl-4-(2-((1-(methylamino)cyclopropyl)buta-1,3-diyn-1-yl)-6-oxo-4,6-dihydro-5H-thieno[2,3-c]pyrrol-5-yl)-2-(methylsulfonyl)butanamide] were 0.125 µg/mL (≈ 0.278 µM), 0.25 µg/mL (≈ 0.556 µM) and 1 µg/mL (≈ 2.22 µM).
The matching figures for `C[C@@](CCN1Cc2cc(C#CC#CCOC(=O)N3CC(O)C3)sc2C1=O)(C(=O)NO)S(C)(=O)=O` [Example 6, (3R)-5-(5-(4-(hydroxyamino)-3-methyl-3-(methylsulfonyl)-4-oxobutyl)-6-oxo-5,6-dihydro-4H-thieno[2,3-c]pyrrol-2-yl)penta-2,4-diyn-1-yl 3-hydroxyazetidine-1-carboxylate]: 1 µg/mL (≈ 1.96 µM), 1 µg/mL (≈ 1.96 µM) and 2 µg/mL (≈ 3.92 µM).
The matching figures for `CNC1(C#CC#Cc2ccc3c(c2)CN(CC[C@](C)(C(=O)NO)S(C)(=O)=O)C3=O)CC1` [Example 7, (2R)—N-hydroxy-2-methyl-4-(5-((1-(methylamino)cyclopropyl)buta-1,3-diyn-1-yl)-1-oxoisoindolin-2-yl)-2-(methylsulfonyl)butanamide]: 0.25 µg/mL (≈ 0.564 µM), 1 µg/mL (≈ 2.25 µM) and 2 µg/mL (≈ 4.51 µM).
For `CN1CC(C#CC#Cc2ccc3c(c2)CN(CC[C@](C)(C(=O)NO)S(C)(=O)=O)C3=O)C1` [Example 8, (2R)—N-hydroxy-2-methyl-4-(5-((1-methylazetidin-3-yl)buta-1,3-diyn-1-yl)-1-oxoisoindolin-2-yl)-2-(methylsulfonyl)butanamide], the results for the minimum inhibitory concentration (MIC) in the experiment with E. coli ATCC25922, against K. pneumoniae A-651 and against P. aeruginosa ATCC27853 were 1 µg/mL (≈ 2.25 µM), 2 µg/mL (≈ 4.51 µM) and 1 µg/mL (≈ 2.25 µM), respectively.
Regarding `C[C@@](CCN1Cc2cc(C#CC#CCOC(=O)N3CC(O)C3)ccc2C1=O)(C(=O)NO)S(C)(=O)=O` [Example 9, (3R)-5-(2-(4-(hydroxyamino)-3-methyl-3-(methylsulfonyl)-4-oxobutyl)-1-oxoisoindolin-5-yl)penta-2,4-diyn-1-yl 3-hydroxyazetidine-1-carboxylate], the MIC was determined as 1 µg/mL (≈ 1.99 µM) in the experiment with E. coli ATCC25922, 1 µg/mL (≈ 1.99 µM) against K. pneumoniae A-651 and 2 µg/mL (≈ 3.97 µM) in the experiment with P. aeruginosa ATCC27853.
Take `COc1ccc(-c2ccc3c(c2)CN(CC[C@](C)(C(=O)NO)S(C)(=O)=O)C3=O)c(F)c1` [Example 10, (2R)-4-(5-(2-fluoro-4-methoxyphenyl)-1-oxoisoindolin-2-yl)-N-hydroxy-2-methyl-2-(methylsulfonyl)butanamide]: the values for the MIC with E. coli ATCC25922, in the experiment with K. pneumoniae A-651 and in the experiment on P. aeruginosa ATCC27853 were 0.125 µg/mL (≈ 0.277 µM), 0.063 µg/mL (≈ 0.14 µM) and 8 µg/mL (≈ 17.8 µM), respectively.
Taken in the same sequence, the figures for `CN1CC(C#CC#Cc2cc3c(s2)C(=O)N(CC[C@](C)(C(=O)NO)S(C)(=O)=O)C3)C1` [Example 11, (2R)—N-hydroxy-2-methyl-4-(2-((1-methylazetidin-3-yl)buta-1,3-diyn-1-yl)-6-oxo-4,6-dihydro-5H-thieno[2,3-c]pyrrol-5-yl)-2-(methylsulfonyl)butanamide] were 0.25 µg/mL (≈ 0.556 µM), 1 µg/mL (≈ 2.22 µM) and 0.5 µg/mL (≈ 1.11 µM).
As to `C[C@@](CCN1Cc2cc(C#CC#CC3(CO)CC3)ccc2C1=O)(C(=O)NO)S(C)(=O)=O` [Example 12, (2R)—N-hydroxy-4-(5-((1-(hydroxymethyl)cyclopropyl)buta-1,3-diyn-1-yl)-1-oxoisoindolin-2-yl)-2-methyl-2-(methylsulfonyl)butanamide], the MIC with E. coli ATCC25922 was 0.031 µg/mL (≈ 0.0697 µM); against K. pneumoniae A-651, 0.25 µg/mL (≈ 0.562 µM); in the experiment with P. aeruginosa ATCC27853 it was 2 µg/mL (≈ 4.5 µM).
The matching figures for `C[C@@](CCN1Cc2cc(C#CC#CC3(N)CC3)ccc2C1=O)(C(=O)NO)S(C)(=O)=O` [Example 13, (2R)-4-(5-((1-aminocyclopropyl)buta-1,3-diyn-1-yl)-1-oxoisoindolin-2-yl)-N-hydroxy-2-methyl-2-(methylsulfonyl)butanamide]: 0.5 µg/mL (≈ 1.16 µM), 1 µg/mL (≈ 2.33 µM) and 1 µg/mL (≈ 2.33 µM).
As for `C[C@@](CCN1Cc2cc(C#Cc3ccc(CN4CC(F)C4)cc3)sc2C1=O)(C(=O)NO)S(C)(=O)=O` [Example 14, (2R)-4-(2-((4-((3-fluoroazetidin-1-yl)methyl)phenyl)ethynyl)-6-oxo-4,6-dihydro-5H-thieno[2,3-c]pyrrol-5-yl)-N-hydroxy-2-methyl-2-(methylsulfonyl)butanamide], the minimum inhibitory concentration (MIC) against E. coli ATCC25922 worked out at 0.031 µg/mL (≈ 0.0597 µM); in the experiment with K. pneumoniae A-651, 0.25 µg/mL (≈ 0.481 µM); in the experiment on P. aeruginosa ATCC27853, 2 µg/mL (≈ 3.85 µM).
In the case of `C[C@@](CCN1Cc2cc(C#CC#CC3CN(C4COC4)C3)sc2C1=O)(C(=O)NO)S(C)(=O)=O` [Example 15, (2R)—N-hydroxy-2-methyl-2-(methylsulfonyl)-4-(2-((1-(oxetan-3-yl)azetidin-3-yl)buta-1,3-diyn-1-yl)-6-oxo-4,6-dihydro-5H-thieno[2,3-c]pyrrol-5-yl)butanamide], the MIC in the experiment with E. coli ATCC25922 was 0.5 µg/mL (≈ 1.02 µM); in the experiment with K. pneumoniae A-651, 4 µg/mL (≈ 8.14 µM); in the experiment on P. aeruginosa ATCC27853 it was 4 µg/mL (≈ 8.14 µM).
Consider `C[C@@](CCN1Cc2cc(C#CC#CC3CN(CCO)C3)sc2C1=O)(C(=O)NO)S(C)(=O)=O` [Example 17, (2R)—N-hydroxy-4-(2-((1-(2-hydroxyethyl)azetidin-3-yl)buta-1,3-diyn-1-yl)-6-oxo-4,6-dihydro-5H-thieno[2,3-c]pyrrol-5-yl)-2-methyl-2-(methylsulfonyl)butanamide], for which the MIC with E. coli ATCC25922 turned out to be 0.5 µg/mL (≈ 1.04 µM); against K. pneumoniae A-651 it was 2 µg/mL (≈ 4.17 µM); against P. aeruginosa ATCC27853 it was 1 µg/mL (≈ 2.09 µM).
The matching figures for `C[C@@](CCN1Cc2cc(C#CC#C[C@H]3C[C@]3(F)CO)ccc2C1=O)(C(=O)NO)S(C)(=O)=O` [Example 18, (2R)-4-(5-(((1R,2R)-2-fluoro-2-(hydroxymethyl)cyclopropyl)buta-1,3-diyn-1-yl)-1-oxoisoindolin-2-yl)-N-hydroxy-2-methyl-2-(methylsulfonyl)butanamide]: 0.5 µg/mL (≈ 1.08 µM), 2 µg/mL (≈ 4.32 µM) and 1 µg/mL (≈ 2.16 µM).
For `C[C@@](CCN1Cc2cc(C#CC#C[C@H]3C[C@@H]3CO)sc2C1=O)(C(=O)NO)S(C)(=O)=O` [Example 19, (2R)—N-hydroxy-4-(2-(((1S,2S)-2-(hydroxymethyl)cyclopropyl)buta-1,3-diyn-1-yl)-6-oxo-4,6-dihydro-5H-thieno[2,3-c]pyrrol-5-yl)-2-methyl-2-(methylsulfonyl)butanamide], the minimum inhibitory concentration (MIC) against E. coli ATCC25922 is 0.125 µg/mL (≈ 0.277 µM); in the experiment with K. pneumoniae A-651, 0.25 µg/mL (≈ 0.555 µM); against P. aeruginosa ATCC27853, 0.5 µg/mL (≈ 1.11 µM).
Taken in the same sequence, the figures for `CN(C)CC(=O)OC[C@H]1C[C@@H]1C#CC#Cc1cc2c(s1)C(=O)N(CC[C@](C)(C(=O)NO)S(C)(=O)=O)C2` [Example 20, ((1S,2S)-2-((5-((3R)-4-(hydroxyamino)-3-methyl-3-(methylsulfonyl)-4-oxobutyl)-6-oxo-5,6-dihydro-4H-thieno[2,3-c]pyrrol-2-yl)buta-1,3-diyn-1-yl)cyclopropyl)methyl dimethylglycinate] were 0.125 µg/mL (≈ 0.233 µM), 0.25 µg/mL (≈ 0.467 µM) and 1 µg/mL (≈ 1.87 µM).
